Reference: patent US10800792B2, “Inhibitors of Bruton's tyrosine kinase and method of their use” (JANSSEN PHARMACEUTICA NV, priority 2015, dated 2020)

Target: unphosphorylated-BTK kinase domain (UP-BTK), GST-tagged human BTK (389-659aa) (Homo sapiens (Human), UniProt Q06187)
Experiment: BTK kinase Lanthascreen binding assay
Settings: pIC50 = negative log of the IC50 in molar; 60 minutes incubation, 50 nM Tracer 236
In short: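 Lanthascreen competition binding; test compound vs fluorescent tracer on unphosphorylated BTK. Output: pIC50 (−log IC50, M).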

Chain of unphosphorylated-BTK kinase domain (UP-BTK), GST-tagged human BTK (389-659aa) (Q06187 389-659): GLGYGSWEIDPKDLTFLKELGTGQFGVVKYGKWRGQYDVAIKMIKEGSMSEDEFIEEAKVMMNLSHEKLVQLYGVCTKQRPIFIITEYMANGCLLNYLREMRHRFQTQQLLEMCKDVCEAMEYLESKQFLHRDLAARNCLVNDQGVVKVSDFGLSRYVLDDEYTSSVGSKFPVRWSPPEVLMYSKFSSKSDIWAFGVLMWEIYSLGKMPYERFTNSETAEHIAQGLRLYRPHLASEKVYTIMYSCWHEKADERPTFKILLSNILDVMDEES

Compound	BTK_I_binding pIC50
C=CC(=O)N1C[C@H](NC(=O)c2sc3nccc4c3c2NC(=O)N4c2ccc(Oc3ccccc3)cc2C)[C@@H](OC)C1 [Example 54, N-((3S,4S)-1-Acryloyl-4-methoxypyrrolidin-3-yl)-5-(2-methyl-4-phenoxyphenyl)-4-oxo-4,5-dihydro-3H-1-thia-3,5,8-triazaacenaphthylene-2-carboxamide]	7.3
C=CC(=O)N1C[C@@H](O)[C@@H](NC(=O)c2sc3nccc4c3c2NC(=O)N4c2ccc(Oc3ccccc3)cc2C)C1 [Example 58, N-((3S,4R)-1-Acryloyl-4-hydroxypyrrolidin-3-yl)-5-(2-methyl-4-phenoxyphenyl)-4-oxo-4,5-dihydro-3H-1-thia-3,5,8-triazaacenaphthylene-2-carboxamide]	7.6
C=CC(=O)N1CCC[C@@H](NC(=O)c2sc3nccc4c3c2NC(=O)N4c2ccc(CC)cc2C)C1 [Example 62, (R)—N-(1-Acryloylpiperidin-3-yl)-5-(4-ethyl-2-methylphenyl)-4-oxo-4,5-dihydro-3H-1-thia-3,5,8-triazaacenaphthylene-2-carboxamide]	7.1
C=CC(=O)N1CCC[C@@H](NC(=O)c2sc3nccc4c3c2NC(=O)N4c2ccc(Oc3c(F)cccc3F)cc2C)C1 [Example 64, (R)—N-(1-Acryloylpiperidin-3-yl)-5-(4-(2,6-difluorophenoxy)-2-methylphenyl)-4-oxo-4,5-dihydro-3H-1-thia-3,5,8-triazaacenaphthylene-2-carboxamide]	7.6
C=CC(=O)N1CCC[C@@H](NC(=O)c2sc3nccc4c3c2NC(=O)N4c2ccc(OC3CCOCC3)cc2C)C1 [Example 65, (R)—N-(1-Acryloylpiperidin-3-yl)-5-(2-methyl-4-((tetrahydro-2H-pyran-4-yl)oxy)phenyl)-4-oxo-4,5-dihydro-3H-1-thia-3,5,8-triazaacenaphthylene-2-carboxamide]	6.6
C=CC(=O)N1CCC[C@@H](NC(=O)c2sc3nccc4c3c2NC(=O)N4c2ccc(OCC)cc2C)C1 [Example 66, (R)—N-(1-Acryloylpiperidin-3-yl)-5-(4-ethoxy-2-methylphenyl)-4-oxo-4,5-dihydro-3H-1-thia-3,5,8-triazaacenaphthylene-2-carboxamide]	7.4
Cc1cc(Oc2ccccc2)ccc1N1C(=O)Nc2c(C(=O)N[C@H]3CCCOC3)sc3nccc1c23 [Example 67, (S)-5-(2-Methyl-4-phenoxyphenyl)-4-oxo-N-(tetrahydro-2H-pyran-3-yl)-4,5-dihydro-3H-1-thia-3,5,8-triazaacenaphthylene-2-carboxamide]	7.5
Cc1cc(Oc2cccc3ccoc23)ccc1N1C(=O)Nc2c(C(=O)N[C@@H]3CCCN(C)C3)sc3nccc1c23 [Example 70, (R)-5-(4-(Benzofuran-7-yloxy)-2-methylphenyl)-N-(1-methylpiperidin-3-yl)-4-oxo-4,5-dihydro-3H-1-thia-3,5,8-triazaacenaphthylene-2-carboxamide]	7.1
CCc1ccccc1Oc1ccc(N2C(=O)Nc3c(C(=O)N[C@@H]4CCCN(C(=O)/C(C#N)=C/C5CC5)C4)sc4nccc2c34)c(C)c1 [Example 76, (R,E)-N-(1-(2-Cyano-3-cyclopropylacryloyl)piperidin-3-yl)-5-(4-(2-ethylphenoxy)-2-methylphenyl)-4-oxo-4,5-dihydro-3H-1-thia-3,5,8-triazaacenaphthylene-2-carboxamide]	6.8
N#C/C(=C\C1CC1)C(=O)N1CCC[C@@H](NC(=O)c2sc3nccc4c3c2NC(=O)N4c2ccc(Oc3ccccc3)cc2F)C1 [Example 79, (R,E)-N-(1-(2-Cyano-3-cyclopropylacryloyl)piperidin-3-yl)-5-(2-fluoro-4-phenoxyphenyl)-4-oxo-4,5-dihydro-3H-1-thia-3,5,8-triazaacenaphthylene-2-carboxamide]	7.5
C=CC(=O)N1CC[C@@H](NC(=O)c2sc3nccc4c3c2NC(=O)N4c2c(C)cc(Oc3ccccc3)cc2C)C1 [Example 81, (R)—N-(1-Acryloylpyrrolidin-3-yl)-5-(2,6-dimethyl-4-phenoxyphenyl)-4-oxo-4,5-dihydro-3H-1-thia-3,5,8-triazaacenaphthylene-2-carboxamide]	6.6
C=CC(=O)N1CCC[C@@H](NC(=O)c2sc3nccc4c3c2NC(=O)N4c2ccc(S(F)(F)(F)(F)F)cc2C)C1 [Example 83, (R)—N-(1-Acryloylpiperidin-3-yl)-5-(2-methyl-4-(pentafluorothio)phenyl)-4-oxo-4,5-dihydro-3H-1-thia-3,5,8-triazaacenaphthylene-2-carboxamide]	6.8
C=CC(=O)N1CCC[C@@H](NC(=O)c2sc3nccc4c3c2NC(=O)N4c2ccc(C)cc2C)C1 [Example 86, (R)—N-(1-Acryloylpiperidin-3-yl)-5-(2,4-dimethylphenyl)-4-oxo-4,5-dihydro-3H-1-thia-3,5,8-triazaacenaphthylene-2-carboxamide]	6.7
Cc1cc(Oc2ccccc2)ccc1N1C(=O)Nc2c(C(=O)N[C@H]3CCOC3)sc3nccc1c23 [Example 90, (S)-5-(2-Methyl-4-phenoxyphenyl)-4-oxo-N-(tetrahydrofuran-3-yl)-4,5-dihydro-3H-1-thia-3,5,8-triazaacenaphthylene-2-carboxamide]	7.5

Results, then the compound that gave them:

BTK_I_binding pIC50	Compound
7.3	Cc1c(N2C(=O)Nc3c(C(=O)N[C@@H]4CCCN(C)C4)sc4nccc2c34)ccc(Oc2ccccc2)c1F [Example 59, (R)-5-(3-Fluoro-2-methyl-4-phenoxyphenyl)-N-(1-methylpiperidin-3-yl)-4-oxo-4,5-dihydro-3H-1-thia-3,5,8-triazaacenaphthylene-2-carboxamide]
6.8	CCCN1CCC[C@@H](NC(=O)c2sc3nccc4c3c2NC(=O)N4c2ccc(Oc3ccccc3)cc2C)C1 [Example 60, (R)-5-(2-Methyl-4-phenoxyphenyl)-4-oxo-N-(1-propylpiperidin-3-yl)-4,5-dihydro-3H-1-thia-3,5,8-triazaacenaphthylene-2-carboxamide]
7.3	Cc1c(N2C(=O)Nc3c(C(=O)N[C@H]4CCCOC4)sc4nccc2c34)ccc(Oc2ccccc2)c1F [Example 61, (S)-5-(3-Fluoro-2-methyl-4-phenoxyphenyl)-4-oxo-N-(tetrahydro-2H-pyran-3-yl)-4,5-dihydro-3H-1-thia-3,5,8-triazaacenaphthylene-2-carboxamide]
7.7	C=CC(=O)N1CCC[C@@H](NC(=O)c2sc3nccc4c3c2NC(=O)N4c2c(F)cc(Oc3ccccc3)cc2F)C1 [Example 69, (R)—N-(1-Acryloylpiperidin-3-yl)-5-(2,6-difluoro-4-phenoxyphenyl)-4-oxo-4,5-dihydro-3H-1-thia-3,5,8-triazaacenaphthylene-2-carboxamide]
7.5	Cc1c(N2C(=O)Nc3c(C(=O)N[C@@H]4CCCOC4)sc4nccc2c34)ccc(Oc2ccccc2)c1F [Example 71, (R)-5-(3-Fluoro-2-methyl-4-phenoxyphenyl)-4-oxo-N-(tetrahydro-2H-pyran-3-yl)-4,5-dihydro-3H-1-thia-3,5,8-triazaacenaphthylene-2-carboxamide]
7.4	COCCC(=O)N1CC[C@@H](NC(=O)c2sc3nccc4c3c2NC(=O)N4c2ccc(Oc3ccccc3)cc2C)C1 [Example 72, (R)—N-(1-(3-Methoxypropanoyl)pyrrolidin-3-yl)-5-(2-methyl-4-phenoxyphenyl)-4-oxo-4,5-dihydro-3H-1-thia-3,5,8-triazaacenaphthylene-2-carboxamide]
6.8	COc1ccccc1Oc1ccc(N2C(=O)Nc3c(C(=O)N[C@@H]4CCCN(C)C4)sc4nccc2c34)c(C)c1 [Example 73, (R)-5-(4-(2-Methoxyphenoxy)-2-methylphenyl)-N-(1-methylpiperidin-3-yl)-4-oxo-4,5-dihydro-3H-1-thia-3,5,8-triazaacenaphthylene-2-carboxamide]
6.9	CCN1CCC[C@@H](NC(=O)c2sc3nccc4c3c2NC(=O)N4c2ccc(Oc3ccccc3)cc2C)C1 [Example 74, (R)—N-(1-Ethylpiperidin-3-yl)-5-(2-methyl-4-phenoxyphenyl)-4-oxo-4,5-dihydro-3H-1-thia-3,5,8-triazaacenaphthylene-2-carboxamide]
7.2	Cc1cc(Oc2ccccc2)ccc1N1C(=O)Nc2c(C(=O)N[C@@H]3CCCN(C(=O)CCO)C3)sc3nccc1c23 [Example 75, (R)—N-(1-(3-Hydroxypropanoyl)piperidin-3-yl)-5-(2-methyl-4-phenoxyphenyl)-4-oxo-4,5-dihydro-3H-1-thia-3,5,8-triazaacenaphthylene-2-carboxamide]
6.9	C=CC(=O)N1CC[C@@H](NC(=O)c2sc3nccc4c3c2NC(=O)N4c2ccc(Oc3ccccc3)c(C)c2C)C1 [Example 77, (R)—N-(1-Acryloylpyrrolidin-3-yl)-5-(2,3-dimethyl-4-phenoxyphenyl)-4-oxo-4,5-dihydro-3H-1-thia-3,5,8-triazaacenaphthylene-2-carboxamide]
7.3	Cc1cc(Oc2ccccc2)ccc1N1C(=O)Nc2c(C(=O)N[C@@H]3CCCN(C(=O)CN(C)C)C3)sc3nccc1c23 [Example 78, (R)—N-(1-(2-(Dimethylamino)acetyl)piperidin-3-yl)-5-(2-methyl-4-phenoxyphenyl)-4-oxo-4,5-dihydro-3H-1-thia-3,5,8-triazaacenaphthylene-2-carboxamide]
7.1	COCCC(=O)N1CCC[C@@H](NC(=O)c2sc3nccc4c3c2NC(=O)N4c2ccc(Oc3ccccc3)c(F)c2C)C1 [Example 89, (R)-5-(3-Fluoro-2-methyl-4-phenoxyphenyl)-N-(1-(3-methoxypropanoyl)piperidin-3-yl)-4-oxo-4,5-dihydro-3H-1-thia-3,5,8-triazaacenaphthylene-2-carboxamide]
7.3	CNCC(=O)N1CCC[C@@H](NC(=O)c2sc3nccc4c3c2NC(=O)N4c2ccc(Oc3ccccc3)cc2C)C1 [Example 91, (R)-5-(2-Methyl-4-phenoxyphenyl)-N-(1-(2-(methylamino)acetyl)piperidin-3-yl)-4-oxo-4,5-dihydro-3H-1-thia-3,5,8-triazaacenaphthylene-2-carboxamide]
